Common to all, as to assay type: cell-based
Experiment [1] relates to human ovarian cancer cell line (SKOV3). The experiment can be described thus: MTT assay, growth inhibition of SKOV3 cells. The note with it: SK-OV-3, MTT, 48 hours incubation, SKOV3, read-out: SKOV3 (IC50). As to the method:
(§1) To evaluate the anticancer activity of the oxindole derivatives produced and analyzed in examples 1 to 8, MTT assay was performed to confirm the growth inhibitory effect on cancer cells. More specifically, human prostate adenocarcinoma cell line (LNCaP), human breast cancer cell line (MCF-7), human ovarian cancer cell line (SKOV3), human lung cancer cell line […] and human renal adenocarcinoma cell line (786-O) were cultured in DMEM medium supplemented with 1% penicillin/streptomycin and 10% fetal bovine serum (All from Life Technologies, Grand Island, N.Y.). Cells were seeded in 96-well plates (3×10^3 cells/well) containing 100 μL of growth medium for 24 hours. After the medium was removed, 100 μL of each of the different analogues (dissolved in DMSO to 0.025% or less) was added to each well and cultured at 37° C. for 48 hours. After 48 hours of incubation, 100 μL of MTT reagent was added to each well. After incubation at 37° C. for 4 hours, the supernatant was aspirated, and the formazan crystals were dissolved in 100 μL of DMSO at 37° C. for 10 minutes with gentle stirring. Absorbance per well was measured at 540 nm using a VERSA max microplate reader (Molecular Devices Corp.). IC50 values were defined as compound concentrations that inhibited cell proliferation by 50% compared to cells treated with the highest amount of DMSO (0.025%) and were considered to be 100% viability.

For experiment [2], the system named is human lung cancer cell line (A459). The experiment can be described thus: MTT assay, growth inhibition of A549 cells. The note with it: Homo sapiens; MTT, 48 hours incubation, A549; read-out: A549 (IC50). As to the method: as §1
On the technique in general: Formazan colour is commonly taken as a measure of viable cells.

Experiment [3] concerns human prostate adenocarcinoma cell line (LNCaP). The experiment can be described thus: MTT assay, growth inhibition of LNCaP cells. The conditions noted are these: for IC50: Homo sapiens, MTT, 48 hours incubation, LNCaP, read-out: LNCaP (IC50). As to the method:
as §1

The test system of experiment [4] is human renal adenocarcinoma cell line (786-O). The experiment can be described thus: MTT assay, growth inhibition of 786-O cells. The note with it: for IC50: Homo sapiens, 786-0, MTT, 48 hours incubation, 786-O, read-out: 786-O (IC50). The procedure: as §1
Experiment [5] concerns human breast cancer cell line (MCF-7). The experiment can be described thus: MTT assay, growth inhibition of MCF-7 cells. The note with it: MCF7, MTT, 48 hours incubation, MCF-7, read-out: MCF-7 (IC50). As to the method: as §1

The source of these data is patent US10322999B2, “Oxindoles derivatives, preparation method thereof and pharmaceutical compositions for the prevention or treatment of cancer containing the same as an active ingredient” (RESEARCH & BUSINESS FOUNDATION SUNGKYUNKWAN UNIVERSITY, priority 2017, dated 2019).

For the molecule `CNC(=O)CC1C(=O)N(Nc2ccccc2C)c2c(C)cccc21` (stereo not shown) [3b, N-Methyl-2-(7-methyl-2-oxo-1-(o-tolylamino)indolin-3-yl)acetamide], the half-inhibitory concentration (IC50) in experiment [1], in experiment [2], in experiment [3], in experiment [4] and in experiment [5] was greater than 50 µM in each case.

Take `CNC(=O)CC1C(=O)N(Nc2cccc(C)c2C)c2c1ccc(C)c2C` (stereo not shown) [3c, 2-(1-((2,3-Dimethylphenyl)amino)-6,7-dimethyl-2-oxoindolin-3-yl)-N-methylacetamide]: the IC50 in experiment [1] is greater than 50 µM; in experiment [2], greater than 50 µM; in experiment [3], 44.6 µM; in experiment [4], 40.9 µM; in experiment [5], greater than 50 µM.

Turning to `CNC(=O)CC1C(=O)N(Nc2cccc(F)c2C)c2c1ccc(F)c2C` (stereo not shown) [3d, 2-(6-Fluoro-1-((3-fluoro-2-methylphenyl)amino)-7-methyl-2-oxoindolin-3-yl)-N-methylacetamide], the IC50 in experiment [1], in experiment [2], in experiment [3], in experiment [4] and in experiment [5] was greater than 50 µM in each case.

As for `CNC(=O)CC1C(=O)N(Nc2ccc(C)cc2C)c2c(C)cc(C)cc21` (stereo not shown) [3g, 2-(1-((2,4-dimethylphenyl)amino)-5,7-dimethyl-2-oxoindolin-3-yl)-N-methylacetamide], the concentration for half-maximal inhibition (IC50) in experiment [1], in experiment [2], in experiment [3], in experiment [4] and in experiment [5] was greater than 50 µM each time.

For the molecule `CNC(=O)CC1C(=O)N(Nc2ccc(F)cc2C)c2c(C)cc(F)cc21` (stereo not shown) [3h, 2-(5-Fluoro-1-((4-fluoro-2-methylphenyl)amino)-7-methyl-2-oxoindolin-3-yl)-N-methylacetamide], the IC50 is greater than 50 µM in experiment [1]; greater than 50 µM in experiment [2]; 42.9 µM in experiment [3]; 41.3 µM in experiment [4]; greater than 50 µM in experiment [5].

As to `CNC(=O)CC1C(=O)N(Nc2ccc(Cl)cc2C)c2c(C)cc(Cl)cc21` (stereo not shown) [3i, 2-(5-Chloro-1-((4-chloro-2-methylphenyl)amino)-7-methyl-2-oxoindolin-3-yl)-N-methylacetamide], the IC50 in experiment [1] was 44.5 µM; in experiment [2] it was greater than 50 µM; in experiment [3], 30.2 µM; in experiment [4], 29.5 µM; in experiment [5], greater than 50 µM. Further, in experiment [3] (summary of Table 3, LNCaP), the “inhibitory activity in LNCaP (in words)” value is “excellent inhibitor activity”. Moreover, the “inhibitory activity in 786-O (in words)” value in experiment [4] (summary of Table 3, 786-O) is “excellent inhibitor activity”.

For the molecule `CNC(=O)CC1C(=O)N(Nc2cc(Br)ccc2C)c2c(C)ccc(Br)c21` (stereo not shown) [3l, 2-(4-Bromo-1-((5-bromo-2-methylphenyl)amino)-7-methyl-2-oxoindolin-3-yl)-N-methylacetamide], the 50% inhibitory concentration (IC50) in experiment [1] is greater than 50 µM; in experiment [2], greater than 50 µM; in experiment [3] it was 42.4 µM; in experiment [4] it was 42.7 µM; in experiment [5] it was greater than 50 µM.

Take `CNC(=O)CC1C(=O)N(Nc2ccccc2)c2ccccc21` (stereo not shown) [3m, N-methyl-2-(2-oxo-1-(phenylamino)indolin-3-yl)acetamide]: the IC50 in experiment [1], in experiment [2], in experiment [3], in experiment [4] and in experiment [5] was greater than 50 µM in each case.

As for `CNC(=O)CC1C(=O)N(Nc2ccc(C)cc2)c2ccc(C)cc21` (stereo not shown) [3n, N-Methyl-2-(5-methyl-2-oxo-1-(p-tolylamino)indolin-3-yl)acetamide], the IC50 in experiment [1], in experiment [2], in experiment [3], in experiment [4] and in experiment [5] was greater than 50 µM each time.

`CCc1cccc(NN2C(=O)C(CC(=O)NC)c3ccc(CC)cc32)c1` (stereo not shown) [3o, 2-(6-Ethyl-1-((3-ethylphenyl)amino)-2-oxoindolin-3-yl)-N-methylacetamide]: the IC50 in experiment [1], in experiment [2], in experiment [3], in experiment [4] and in experiment [5] was greater than 50 µM throughout.

As usually defined, the IC50 is the point on the concentration scale where inhibition reaches its midpoint.
